Data on 5 molecules can be found in article PMC12621189, “Optimization of Selective and CNS Penetrant Alkyne-Based TREK Inhibitors: The Discovery and Characterization of ONO-9517601 (VU6022856) and ONO-7927846 (VU6024391)” (Journal of Medicinal Chemistry, 2025).

The term IC50 denotes the midpoint of a concentration-inhibition curve. The chromatographic logD is a lipophilicity value derived from retention on a column. A higher chromatographic logD goes with a more lipophilic compound.

Data set [1] deals with T1, human TREK-1 (hTREK-1) (Homo sapiens, UniProt O95069).
T1 construct: expressed in transfected cells
T1 sequence (O95069 1-426): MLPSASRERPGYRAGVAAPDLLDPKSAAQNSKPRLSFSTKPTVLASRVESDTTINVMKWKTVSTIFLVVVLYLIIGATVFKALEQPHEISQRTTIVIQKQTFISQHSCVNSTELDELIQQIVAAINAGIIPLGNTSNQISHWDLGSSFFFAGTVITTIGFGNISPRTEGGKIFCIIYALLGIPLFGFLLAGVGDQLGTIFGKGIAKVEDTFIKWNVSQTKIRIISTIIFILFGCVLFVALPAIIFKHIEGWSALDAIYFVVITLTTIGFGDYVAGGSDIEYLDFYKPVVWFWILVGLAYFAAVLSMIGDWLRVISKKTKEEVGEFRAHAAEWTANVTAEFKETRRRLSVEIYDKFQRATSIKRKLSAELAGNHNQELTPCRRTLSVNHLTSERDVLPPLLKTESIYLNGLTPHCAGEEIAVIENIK
The data set can be described thus: TREK-1 thallium flux assay (CHO-K1 cells stably expressing hTREK-1). The format is cell-based. The settings on record: human TREK-1, thallium flux; read-out: h TREK-1 Tl+ IC50. On the procedure: Procedures for Biological Experiments
TREK-1 Thallium flux assay
CHO-K1 cells stably expressing hTREK-1 were cultured in T225 flask. The cells were loaded with FluxOR dye and plated in 384 well plate at the experiment day. Test compounds or control compound (tert-butyl (3-((4-(benzyloxy)-2-methylphenyl)carbamoyl)-4-chlorophenyl)carbamate) or 0.3% DMSO (vehicle control) were added directly to the cell plates and incubated for 10 min, and then treated with thallium stimulus buffer to initiate thallium flux.
To measure the efficacy and potency of test compounds, the change in fluorescence intensity (ΔRatio) and % inhibition were calculated using the following equations:
ΔRatio = (fluorescence intensity at 25 seconds after thallium addition)/(average of fluorescent intensity before thallium addition)
(§1) 0.3% DMSO - ΔRatio of 10 μM control compound)}x100
(§2) % inhibition vs compound concentration were plotted in XLfit and calculated IC50.
CHO-K1 cells stably expressing human TREK-1 (hTREK-1) were cultured in T225 flask.
The cells were loaded with FluxOR dye and plated in 384 well plate at the experiment day. Test compounds or control compound (tert-butyl (3-((4-(benzyloxy)-2-methylphenyl)carbamoyl)-4-chlorophenyl)carbamate) or 0.3% DMSO (vehicle control) which were prepared on separate plates were added to the cell plates and incubated for 10 min, and then the cells with test compounds or […]
chlorophenyl)carbamate) or 0.3% DMSO (vehicle control) were treated with thallium stimulus buffer to initiate thallium flux. To measure the efficacy and potency of test compounds, the change in fluorescence intensity (ΔRatio) and % inhibition were calculated using the following equations: […]

The nature of data set [2]: Liver microsome intrinsic clearance, mouse. Conditions: pH 7.4; mouse liver microsomes, predicted intrinsic clearance; read-out: LMS CLINT mouse. The format is in vitro ADME.
A short description of data set [3]: Liver microsome intrinsic clearance, human. The format is in vitro ADME. The settings on record: pH 7.4; human liver microsomes, predicted intrinsic clearance; read-out: LMS CLINT human. Here is the method:
(§3) were incubated in 100 mM potassium phosphate pH 7.4 buffer with 3 mM MgCl2 at 37 °C with constant shaking. After a 5 min preincubation, the reaction was initiated by the addition of NADPH (1 mM). At selected time intervals (0, 3, 7, 15, 25, and 45 min), aliquots were taken and subsequently placed into a 96-well plate containing cold acetonitrile with internal standard (50 ng/mL carbamazepine). Plates were then centrifuged at 3000 rcf (4 °C) for 10 min, and the supernatant was transferred to a separate 96-well plate and diluted 1:1 with water for LC/MS/MS analysis. The in vitro half-life ( 1/2, min, Eq. 1), intrinsic clearance (CLint, mL/min/kg, Eq. 2), and subsequent predicted hepatic clearance (CLhep, mL/min/kg, Eq. 3) was determined employing the […]
(§4) where k represents the slope from linear regression analysis of the natural log percent remaining of a test compound as a function of incubation time […]
(§5) (2) CLint = in vitroT x mg microsomes x gram liver x kg body wt ascale-up factors: of 20 (human) or 45 (rat) […]
(§6) where Qh (hepatic blood flow, mL/min/kg) is 21 (human) or 70 (rat).
(§7) LC/MS/MS Bioanalysis of Samples from Plasma Protein Binding and Intrinsic Clearance […]
(§8) Samples were analyzed on a Thermo Electron TSQ Quantum Ultra triple quad mass spectrometer (San Jose, CA) via electrospray ionization (ESI) with two Themo Electron Accella pumps (San Jose, CA), and a Leap Technologies CTC PAL autosampler (Carrboro, NC). Analytes were […]

Data set [4] in a line: ChromatoLogD. The format is physicochemical.
Data set [5] is described as follows: Plasma protein binding, rat. Conditions: rat, plasma, pH 7.4, rat plasma, bound; read-out: PPB rat (converted). The format is in vitro ADME. Here is the method: (§9) Plasma protein binding and Brain homogenate binding: Determination of fraction unbound (f u) in plasma was conducted in vitro via equilibrium dialysis using HTDialysis (HTD) membrane plates. The top half of the plate was filled with 100 uL of Dubelco’s Phosphate Buffered Saline, pH 7.4 (DPBS). Compounds were diluted into plasma from each species (5 µM final concentration), which was aliquoted in triplicate to the ‘bottom half’ of the prepared HTD plate wells. The HTD plate was sealed and incubated for 6 hours at 37 °C. Following incubation, each well (both top and bottom halves) were transferred (20 µL) to the corresponding wells of a 96-shallow-well (V-bottom) plate. The daughter plates were then matrix-matched (DPBS side wells received equal volume of plasma, and plasma side wells received equal volume of DPBS), and extraction solution (120 µL; acetonitrile containing 50 nM carbamazepine as IS) was added to all wells of both daughter plates to precipitate protein and extract test article. The plates were then sealed and centrifuged (3500 rcf) for 10 minutes at ambient temperature. Supernatant (60 µL) from each well of the daughter plates was then transferred to the corresponding wells of new daughter plates (96-shallow-well, V bottom) containing water (Milli-Q, 60 µL/well), and the plates were sealed in preparation for LC-MS/MS analysis (see LC-MS/MS analysis method below).
(§10) The unbound fraction (f u) was calculated following the equation below, and mean values for each species were calculated from 3 replicates. […]
(§11) Fraction unbound for both plasma and brain samples was determined using Equation 4.
(§12) Equation 4 Determination of fraction unbound in plasma. […]

Data set [6] can be described thus: Plasma protein binding, mouse. Conditions: mouse, plasma, pH 7.4, mouse plasma, bound; read-out: PPB mouse (converted). The format is in vitro ADME. Here is the method: as §9, §10, §11, §12
The nature of data set [7]: Liver microsome intrinsic clearance, rat. The format is in vitro ADME. The settings on record: pH 7.4; rat liver microsomes, predicted intrinsic clearance; read-out: LMS CLINT rat. On the procedure:
as §3, §4, §5, §6, §7, §8

The target of data set [8] is T2, human TREK-2 (hTREK-2) (Homo sapiens, UniProt P57789).
T2 construct: expressed in transfected cells
T2 sequence (P57789 1-538): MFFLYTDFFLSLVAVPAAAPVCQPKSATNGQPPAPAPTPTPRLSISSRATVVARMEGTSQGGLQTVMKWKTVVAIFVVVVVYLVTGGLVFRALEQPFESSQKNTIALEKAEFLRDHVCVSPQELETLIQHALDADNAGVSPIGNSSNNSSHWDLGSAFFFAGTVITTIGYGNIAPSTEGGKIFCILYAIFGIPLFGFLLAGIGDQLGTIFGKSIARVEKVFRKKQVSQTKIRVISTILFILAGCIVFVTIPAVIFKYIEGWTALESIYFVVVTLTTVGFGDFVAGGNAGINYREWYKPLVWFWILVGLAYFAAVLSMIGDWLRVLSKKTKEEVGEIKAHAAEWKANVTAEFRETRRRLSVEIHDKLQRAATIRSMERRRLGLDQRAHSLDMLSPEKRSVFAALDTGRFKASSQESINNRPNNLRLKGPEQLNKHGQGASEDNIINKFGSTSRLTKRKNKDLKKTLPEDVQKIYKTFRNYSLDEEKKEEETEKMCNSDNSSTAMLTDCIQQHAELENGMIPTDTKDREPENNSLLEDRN
The data set can be described thus: TREK-2 thallium flux assay (HEK293 cells stably expressing hTREK-2). The format is cell-based. The settings on record: human TREK-2, thallium flux; read-out: h TREK-2 Tl+ IC50. Here is the method:
as §1, §2
TREK-2 Thallium flux assay
HEK293 cells stably expressing human TREK-2 (hTREK-2) are plated in 384-well plates, cultured overnight, loaded with Thallos dye the following day. Test compounds or control compound (tert-butyl (3-((4-(benzyloxy)-2-methylphenyl)carbamoyl)-4-chlorophenyl)carbamate) or 0.3% DMSO (vehicle control) which are prepared on separate plates are added to the cell plates and incubated for 10 min, and then the cells were treated with thallium stimulus buffer to initiate […]
To measure the efficacy and potency of test compounds, the change in fluorescence intensity (ΔRatio) and % inhibition are calculated using the following equations: […]

For the molecule `Cc1cc(C#Cc2ccccc2)cnc1NC(=O)c1cc(-c2noc(C3CCOC3)n2)ccc1Cl` (centres unmarked) [Compound 13b, 2-Chloro-N-(3-methyl-5-(phenylethynyl)pyridin-2-yl)-5-(5-(tetrahydrofuran-3-yl)-1,2,4-oxadiazol-3-yl)benzamide], the IC50 in data set [1] stood at 48 nM. In addition, the CLint scaled at 1 µM was 68 mL/min/kg in data set [2] and 71 mL/min/kg in data set [3]. The molecule also displayed a chromatographic logD in data set [4] of 5.01.

As to `Cc1cc(C#Cc2ccccc2)cnc1NC(=O)c1c(Cl)cnn1-c1ccc2c(cnn2C)c1` [Compound 15c, 4-Chloro-1-(1-methyl-1H-indazol-5-yl)-N-(3-methyl-5-(phenylethynyl)pyridin-2-yl)-1H-pyrazole-5-carboxamide], in data set [1], the IC50 was 84 nM. Moreover, in data set [5], the fraction unbound at 6 h, 5 µM was 0.002.

Regarding `Cc1cc(C#Cc2ccccc2)cnc1NC(=O)c1c(Cl)cnn1CCCC#N` [Compound 15d, 4-Chloro-1-(3-cyanopropyl)-N-(3-methyl-5-(phenylethynyl)pyridin-2-yl)-1H-pyrazole-5-carboxamide], the fraction unbound at 6 h, 5 µM in data set [6] is 0.001. Besides, the CLint scaled at 1 µM in data set [3] is 9 mL/min/kg; in data set [7], 30 mL/min/kg.

As for `CC(=O)N1C[C@H]2C[C@H](n3ncc(Cl)c3C(=O)Nc3ncc(C#Cc4ccccc4)cc3C)C[C@H]2C1` [Compound 15g, 1-((3aR,5s,6aS)-2-Acetyloctahydrocyclopenta[c]pyrrol-5-yl)-4-chloro-N-(3-methyl-5-(phenylethynyl)pyridin-2-yl)-1H-pyrazole-5-carboxamide], the fraction unbound at 6 h, 5 µM in data set [5] was 0.009.

For the molecule `CC(=O)N1CC[C@@H](n2ncc(Cl)c2C(=O)Nc2ncc(C#Cc3ccccc3)cc2C)[C@H](F)C1` [Compound 16b, 1-((3R,4R)-1-Acetyl-3-fluoropiperidin-4-yl)-4-chloro-N-(3-methyl-5-(phenylethynyl)pyridin-2-yl)-1H-pyrazole-5-carboxamide], the IC50 turned out to be 290 nM in data set [8] and 96 nM in data set [1]. For the same molecule, the CLint scaled at 1 µM in data set [3] is 13 mL/min/kg; in data set [7], 94 mL/min/kg.
